Measured values taken from patent publication US11840528B2 (Hoffmann-La Roche Inc., priority 2018, dated 2023).
pKi: −log10 of the molar value.

Key:
h-GABA-A α5β3γ2 [1] = molecular target: T1, h-GABA-A α5β3γ2 (Homo sapiens, UniProt P18507+P31644); assay: [3H]flumazenil competition binding assay, membranes of HEK293 cells expressing GABAA receptors; settings: displacement of [3H]-Flumazenil 0.5 nM, HEK293 cells expressing human receptors, mean of two determinations; Table 1
Procedure, shortened: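 Membranes from HEK293 cells transiently expressing human α5β3γ2 GABAA receptors, in Krebs-tris buffer pH 7.5, competed against [3H]flumazenil for 1 hour at 4° C to equilibrium. Bound radioactivity collected on GF/C filters and counted by liquid scintillation; Ki values are means of two determinations.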

h-GABA-A α5β3γ2 [2] = molecular target: T1, h-GABA-A α5β3γ2; assay: Two-electrode voltage clamp electrophysiology in Xenopus laevis oocytes expressing GABAA receptors, modulation of GABA EC20 current; format: cell-based; design: host or cells: Xenopus laevis oocytes micro-injected with RNA transcripts of the subunits; settings: Table 1; for Efficacy (GABA) %: % modulation of GABA EC20 = 100*(Fold increase-1); for Fold increase h-GABA-A α5β3γ2 oocyte: test compound at approx. 30 fold its Ki, GABA at EC20
Procedure, shortened: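 Human α5β3γ2 GABAA receptors were expressed in Xenopus oocytes by RNA injection, with γ2 RNA 5–10-fold higher, and recorded 3–5 days later by two-electrode voltage clamp at −80 mV at room temperature. The test compound, at about 30× its Ki, was co-applied during a second GABA EC20 pulse. Efficacy is the extremum of the point-by-point ratio to the first response, expressed as 100*(Fold increase−1).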

| Structure (SMILES) | pKi (h-GABA-A α5β3γ2 [1]) | Efficacy (GABA) % (h-GABA-A α5β3γ2 [2]) | Fold increase h-GABA-A α5β3γ2 oocyte (h-GABA-A α5β3γ2 [2]) |
| --- | --- | --- | --- |
| Cc1ccc(-c2noc(C)c2Cn2ncc(-c3ccnc(N(C)C)c3)cc2=O)cn1 [Example 156, 5-(2-(dimethylamino)pyridin-4-yl)-2-((5-methyl-3-(6-methylpyridin-3-yl)isoxazol-4-yl)methyl)pyridazin-3(2H)-one] | 8.59 | 66% | 1.66 |
| Cc1ccc(-c2noc(C)c2Cn2ncc(-c3cnn(CC4CC4)c3)cc2=O)cn1 [Example 157, 5-(1-(cyclopropylmethyl)-1H-pyrazol-4-yl)-2-((5-methyl-3-(6-methylpyridin-3-yl)isoxazol-4-yl)methyl)pyridazin-3(2H)-one] | 7.64 | 86% | 1.86 |
| Cc1ccc(-c2noc(C)c2Cn2ncc(N3CC(OCC(F)(F)F)C3)cc2=O)cn1 [Example 158, 2-[[5-methyl-3-(6-methyl-3-pyridyl)isoxazol-4-yl]methyl]-5-[3-(2,2,2-trifluoroethoxy)azetidin-1-yl]pyridazin-3-one] | 8.02 | 96% | 1.96 |
| COC1CN(c2cnn(Cc3c(-c4ccc(Cl)cc4)noc3C)c(=O)c2)C1 [Example 160, 2-[[3-(4-chlorophenyl)-5-methyl-isoxazol-4-yl]methyl]-5-(3-methoxyazetidin-1-yl)pyridazin-3-one] | 8.13 | 43% | 1.43 |
| CCOC1CN(c2cnn(Cc3c(-c4ccc(Cl)cc4)noc3C)c(=O)c2)C1 [Example 161, 2-[[3-(4-chlorophenyl)-5-methyl-isoxazol-4-yl]methyl]-5-(3-ethoxyazetidin-1-yl)pyridazin-3-one] | 8.11 | 56% | 1.56 |
| Cc1onc(-c2ccc(Cl)cc2)c1Cn1ncc(N2CC3(CCCO3)C2)cc1=O [Example 162, 2-[[3-(4-chlorophenyl)-5-methyl-isoxazol-4-yl]methyl]-5-(5-oxa-2-azaspiro[3.4]octan-2-yl)pyridazin-3-one] | 7.73 | 40% | 1.4 |
| Cc1ccc(-c2noc(C)c2Cn2ncc(-c3ccnc(N4CCNCC4)c3)cc2=O)cn1 [Example 163, 2-((5-methyl-3-(6-methylpyridin-3-yl)isoxazol-4-yl)methyl)-5-(2-(piperazin-1-yl)pyridin-4-yl)pyridazin-3(2H)-one] | 7.94 | 165% | 2.65 |
| Cc1ccc(-c2noc(C)c2Cn2ncc(N3CCC(c4ccnn4C)CC3)cc2=O)cn1 [Example 166, 2-[[5-methyl-3-(6-methyl-3-pyridyl)isoxazol-4-yl]methyl]-5-[4-(2-methylpyrazol-3-yl)-1-piperidyl]pyridazin-3-one] | 8.77 | 149% | 2.49 |
| CCn1nccc1C1CCN(c2cnn(Cc3c(-c4ccc(C)nc4)noc3C)c(=O)c2)CC1 [Example 167, 5-[4-(2-ethylpyrazol-3-yl)-1-piperidyl]-2-[[5-methyl-3-(6-methyl-3-pyridyl)isoxazol-4-yl]methyl]pyridazin-3-one] | 8.66 | 195% | 2.95 |
| Cc1ccc(-c2noc(C)c2Cn2ncc(N3CC(OC(F)F)C3)cc2=O)cn1 [Example 168, 5-[3-(difluoromethoxy)azetidin-1-yl]-2-[[5-methyl-3-(6-methyl-3-pyridyl)isoxazol-4-yl]methyl]pyridazin-3-one] | 8.03 | 140% | 2.4 |
| COC1CN(c2cnn(Cc3c(-c4ccc(C)nn4)noc3C)c(=O)c2)C1 [Example 169, 5-(3-methoxyazetidin-1-yl)-2-[[5-methyl-3-(6-methylpyridazin-3-yl)isoxazol-4-yl]methyl]pyridazin-3-one] | 8.62 | 97% | 1.97 |
| CCOC1CN(c2cnn(Cc3c(-c4ccc(C)nn4)noc3C)c(=O)c2)C1 [Example 170, 5-(3-ethoxyazetidin-1-yl)-2-[[5-methyl-3-(6-methylpyridazin-3-yl)isoxazol-4-yl]methyl]pyridazin-3-one] | 8.66 | 111% | 2.11 |
| Cc1ccc(-c2noc(C)c2Cn2ncc(N3CC4(CCCO4)C3)cc2=O)nn1 [Example 171, 2-[[5-methyl-3-(6-methylpyridazin-3-yl)isoxazol-4-yl]methyl]-5-(5-oxa-2-azaspiro[3.4]octan-2-yl)pyridazin-3-one] | 8.38 | 80% | 1.8 |
| Cc1ccc(-c2noc(C)c2Cn2ncc(-c3cnn(CC(C)C)c3)cc2=O)cn1 [Example 172, 5-(1-isobutylpyrazol-4-yl)-2-[[5-methyl-3-(6-methyl-3-pyridyl)isoxazol-4-yl]methyl]pyridazin-3-one] | 7.47 | 113% | 2.13 |
| Cc1ccc(-c2noc(C)c2Cn2ncc(-c3ccc(C4CC4)nc3)cc2=O)cn1 [Example 173, 5-(6-cyclopropyl-3-pyridyl)-2-[[5-methyl-3-(6-methyl-3-pyridyl)isoxazol-4-yl]methyl]pyridazin-3-one] | 7.53 | 80% | 1.8 |
| CNc1ccc(-c2cnn(Cc3c(-c4ccc(C)nc4)noc3C)c(=O)c2)cn1 [Example 174, 5-(6-(methylamino)-3-pyridyl)-2-((5-methyl-3-(6-methyl-3-pyridyl)isoxazol-4-yl)methyl)pyridazin-3-one] | 7.66 | 101% | 2.01 |
| Cc1ccc(-c2noc(C)c2Cn2ncc(-c3ccnc(OC(F)F)c3)cc2=O)cn1 [Example 175, 5-(2-(difluoromethoxy)pyridin-4-yl)-2-((5-methyl-3-(6-methylpyridin-3-yl)isoxazol-4-yl)methyl)pyridazin-3(2H)-one] | 8.18 | 86% | 1.86 |
| Cc1ccc(-c2noc(C)c2Cn2ncc(-c3cnn(CC4(C)COC4)c3)cc2=O)cn1 [Example 176, 2-((5-methyl-3-(6-methylpyridin-3-yl)isoxazol-4-yl)methyl)-5-(1-((3-methyloxetan-3-yl)methyl)-1H-pyrazol-4-yl)pyridazin-3(2H)-one] | 7.53 | 103% | 2.03 |
